How the values were obtained:
[1] = system: human PGHS-2; assay: Prostoglandin endoperoxide synthase-2 (PGHS-2) assay: PGHS-2 protein expression in LPS stimulated human monocytes; format: cell-based
Method: Prostoglandin endoperoxide synthase-2 (PGHS-2) assay:
The following assay describes a method for determining the inhibitory effects of compounds of Formula (I) on human PGHS-2 protein expression in LPS stimulated human monocytes.
Method: Human peripheal blood monocytes were isolated from buffy coats by centrifugation through Ficoll and Percoll gradients. Cells were seeded at 2×10^6 /well in 24 well plates and allowed to adhere for 1 hour in RPMI supplemented with 1% human AB serum, 20 mM L-glutamine, Penicillin-Streptomycin and 10 mM HEPES. Compounds were added at various concentrations and incubated at 37° C. for 10 minutes. LPS was added at 50 ng/well (to induce enzyme expression) and incubated overnight at 37° C. The supernatant was removed and cells washed once in cold PBS. The cells were lysed in 100 μl of cold lysis buffer(50 mM Tris/HCl pH 7.5, 150 mM NaCl, 1% NP40, 0.5% sodium deoxycholate, 0.1% SDS, 300 ug/ml DNAse, 0.1% TRITON X-100, 1 mM PMSF, 1 mM leupeptin, 1 mM pepstatin). The lysate was centrifuged (10,000×g for 10 min. at 4° C.) to remove debris and the soluble fraction was subjected to SDS PAGE. analysis (12% gel). Protein separated on the gel were transferred onto nitrocellulose membrane by electrophoretic means for 2 hours at 60 volts. The membrane was pretreated for one hour in PBS/0.1% Tween 20 with 5% non-fat dry milk. After washing 3 times in PBS/Tween buffer, the membrane was incubated with a 1:2000 dilution of a monospecific antiserum to PGHS-2 or a 1:1000 dilution of an antiserum to PGHs-1 in PBS/Tween with 1% BSA for one hour with continuous shaking. The membrane was washed 3× in PBS/Tween and then incubated with a 1:3000 dilution of horseradish peroxidase conjugated donkey antiserum to rabbit Ig (Amershamn) in PBS/Tween with 1% BSA for one hour with continuous shaking. The membrane was then washed 3× in PBS/Tween and the ECL immunodetection system (Amersham) was used to detect the level of expression of prostaglandin endoperoxide synthases-2.

[2] = system: IL-1; assay: Interleukin-1 (IL-1) production by LPS-stimulated human peripheral blood monocytes; format: cell-based; details: LPS 50 ng/ml
Method: Human peripheral blood monocytes are isolated and purified from either fresh blood preparations from volunteer donors, or from blood bank buffy coats, according to the procedure of Colotta et al, J Immunol, 132, 936 (1984). These monocytes (1×10^6) are plated in 24-well plates at a concentration of 1-2 million/ml per well. The cells are allowed to adhere for 2 hours, after which time non-adherent cells are removed by gentle washing. Test compounds are then added to the cells for 1 h before the addition of lipopolysaccharide (50 ng/ml), and the cultures are incubated at 37° C. for an additional 24 h. At the end of this period, culture supernatants are removed and clarified of cells and all debris. Culture supernatants are then immediately assayed for IL-1 biological activity, either by the method of Simon et al., J. Immunol. Methods, 84, 85, (1985) (based on ability of IL-1 to stimulate a Interleukin 2 producing cell line (EL-4) to secrete IL-2, in concert with A23187 ionophore) or the method of Lee et al., J. Immuno Therapy, 6 (1), 1-12 (1990) (ELISA assay).

[3] = biological target: T1, CSBP2 (Homo sapiens, UniProt Q16539); assay: CSBP kinase assay (32P transfer to EGFR-derived peptide T669); format: biochemical
T1 construct: made in house
Method: Compounds (5 ul from [6X] stock^(2)) are pre-incubated with the enzyme and peptide for 20 min on ice prior to starting the reactions with 32P/MgATP. Reactions are incubated at 30° C. for 10 min and stopped by adding 10 ul of 0.3 M phosphoric acid. 32P-labeled peptide is separated on phosphocellulose (Wattman, p81) filters by spotting 30 ul reaction mixture. Filters are washed 3 times with […] phosphoric acid followed by 2 washes with H2 O, and counted for 32P.
^(2) Compounds are usually dissolved in DMSO and are diluted in 25 mM Hepes buffer to get final concentration of DMSO of 0.17%.

[4] = biological target: T2, cytokine specific binding protein (CSBP) (Homo sapiens, UniProt Q16539); assay: Cytokine Specific Binding Protein Assay (radiocompetitive binding, cytosolic fraction of THP.1 cells); details: THP.1 cytosolic fraction, radiolabeled compound
T2 construct: soluble cystosolic fraction from THP.1 cells; endogenous in cells; host or cells: THP.1 cells, soluble cytosolic fraction

[5] = active, rank order potency similar to that for inhibiting cytokine production

T1 sequence (Q16539 whole entry): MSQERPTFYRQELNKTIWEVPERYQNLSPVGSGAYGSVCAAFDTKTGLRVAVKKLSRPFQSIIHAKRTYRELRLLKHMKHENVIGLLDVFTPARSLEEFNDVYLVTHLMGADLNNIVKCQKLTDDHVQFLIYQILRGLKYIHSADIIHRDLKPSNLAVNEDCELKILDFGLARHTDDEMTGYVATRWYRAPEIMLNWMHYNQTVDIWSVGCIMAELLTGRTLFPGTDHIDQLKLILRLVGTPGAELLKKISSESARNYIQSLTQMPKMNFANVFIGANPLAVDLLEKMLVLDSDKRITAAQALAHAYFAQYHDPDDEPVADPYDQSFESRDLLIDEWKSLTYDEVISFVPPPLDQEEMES
T2 sequence (Q16539 whole entry): as above

## C[S+]([O-])c1ccc(-c2nc3n(c2-c2ccncc2)CCC3)cc1 (stereo not drawn) [2-(4-Methylsulfinylphenyl)-3-(4-pyridyl)-6,7-dihydro-(5H)-pyrrolo[1,2-a]imidazole]
[1]; inactive, up to 10 μM
  inhibition of LPS induced PGHS-2 protein expression: inactive

## C[S+]([O-])c1ccc(-c2nc(-c3ccc(F)cc3)c(-c3ccncc3)[nH]2)cc1 (stereo not drawn) [4-(4-Fluorophenyl)-2-(4-methylsulfinylphenyl)-5-(4-pyridyl)imidazole]
[1]; [5]
  inhibition of LPS induced PGHS-2 protein expression: active

## Fc1ccc(-c2nc3n(c2-c2ccncc2)CCS3)cc1 [6-(4-Fluorophenyl)-2,3-dihydro-5-(4-pyridinyl)imidazo[2,1-b]thiazole]
[1]; [5]
  inhibition of LPS induced PGHS-2 protein expression: active

## C[C@@H]1C[C@H]2[C@@H]3CCC4=CC(=O)C=C[C@]4(C)[C@@]3(F)[C@@H](O)C[C@]2(C)[C@@]1(O)C(=O)CO [Dexamethasone]
[1]; [5]
  inhibition of LPS induced PGHS-2 protein expression: active

## COc1nccc(-c2c(-c3ccc(F)cc3)ncn2C2CCNCC2)n1 [Example 1, 5-(2-Methoxy-4-pyrimidinyl)-4-(4-fluorophenyl)-1-(4-piperidinyl)imidazole]
[2]
  inhibition of IL-1 production: positive inhibition

## CC(C)Oc1cc(-c2c(-c3ccc(F)cc3)ncn2C2CCNCC2)ccn1 [Example 5, 5-(2-iso-Propoxy4-pyridinyl)-4-(4-fluorophenyl)-1-(4-piperidinyl)imidazole]
[3]
  IC50: > 50 µM

## CSc1nccc(-c2c(-c3ccc(F)cc3)ncn2C2CCNCC2)n1 [Example 6, 5-(2-Methylthio-4-pyrimidinyl)4-(4-fluorophenyl)-1-(4-piperidinyl)imidazole]
[4]
  IC50: < 50 µM

## CCOC(=O)N1CCC(n2cnc(-c3ccc(SC)cc3)c2-c2ccnc(SC)n2)CC1 [Example 9, 1-(1-Ethylcarboxylpiperidin-4-yl)-3-(4-thiomethylphenyl)-5-[2-(thiomethyl)pyrimidin-4-yl]-imidazole]
[3]
  IC50: > 50 µM

## CCOC(=O)N1CCC(n2cnc(-c3ccc([S+](C)[O-])cc3)c2-c2ccnc([S+](C)[O-])n2)CC1 (stereo not drawn) [Example 10]
[3]
  IC50: > 50 µM

## CC(Cc1ccc(O)c(O)c1)C(C)Cc1ccc(O)c(O)c1 (stereo not drawn) [NDGA]
[1]; inactive, up to 10 μM
  inhibition of LPS induced PGHS-2 protein expression: inactive

## O=C1CCN(c2ccccc2)N1 [phenidone]
[1]; inactive, up to 10 μM
  inhibition of LPS induced PGHS-2 protein expression: inactive

## COc1ccc(C2CNC(=O)C2)cc1OC1CCCC1 (stereo not drawn) [rolipramr]
[1]; inactive, up to 10 μM
  inhibition of LPS induced PGHS-2 protein expression: inactive
